Measured values taken from article PMC6225228, “Design, Synthesis and Evaluation of N-pyrazinylbenzamides as Potential Antimycobacterial Agents” (Molecules : A Journal of Synthetic Chemistry and Natural …, 2018).
≈ marks a conversion by molar mass, not a printed value. Where two headings read alike, the source gives them in different places.

Tests used:
[1] = tested on: Mycobacterium tuberculosis H37Rv (Mtb); conditions: Šula's semisynthetic medium, pH = 5.6, turbidity, cited from earlier work; for Amides MIC: first value; for Amides MIC (value in parentheses): second value in parentheses
HepG2 cells = conditions: read-out: Amide -CONH- IC50; cited from earlier work
[2] = tested on: Lichtheimia corymbifera 272; experiment: Antifungal microdilution broth, LC; assay type: cell-based; conditions: read-out: MIC LC
Candida tropicalis 156 = experiment: Antifungal microdilution broth, CT; assay type: cell-based; conditions: read-out: MIC CT
[3] = tested on: Mycobacterium tuberculosis H37Rv CNCTC My 331/88 (ATCC 27294); experiment: Antimycobacterial microdilution MABA, M. tuberculosis; assay type: cell-based; conditions: Mycobacterium tuberculosis
[4] = tested on: M. kansasii CNCTC My 235/80 (ATCC 12478); experiment: Antimycobacterial microdilution MABA, M. kansasii; assay type: cell-based, Mycobacterium kansasii; conditions: Mycobacterium kansasii, ATCC12478, pH 6.6, read-out: M. kans. ATCC 12478 MIC, Middlebrook 7H9 with OADC, pH 6.6, MABA
[5] = tested on: Candida albicans ATCC 44859; experiment: Antifungal microdilution broth, CA; assay type: cell-based; conditions: Candida albicans, read-out: MIC CA
[6] = tested on: Mycobacterium smegmatis CCM 4622 (ATCC 607); experiment: Antimycobacterial microdilution, M. smegmatis; assay type: cell-based; conditions: Mycolicibacterium smegmatis, read-out: M. smeg. ATCC 607 MIC
Candida krusei E28 = experiment: Antifungal microdilution broth, CK; assay type: cell-based; conditions: Pichia kudriavzevii, read-out: MIC CK
[7] = tested on: Staphylococcus epidermidis H 6966/08; experiment: Antibacterial microdilution broth, SE; assay type: cell-based; conditions: read-out: MIC SE
[8] = human, HepG2 cells
[9] = tested on: Trichophyton interdigitale 445; experiment: Antifungal microdilution broth, TI; assay type: cell-based; conditions: read-out: MIC TI
Candida glabrata 20/I = experiment: Antifungal microdilution broth, CG; assay type: cell-based; conditions: Nakaseomyces glabratus, 20/I, read-out: MIC CG
[10] = tested on: Pseudomonas aeruginosa CCM 1961; experiment: Antibacterial microdilution broth, PA; assay type: cell-based; conditions: Pseudomonas aeruginosa, read-out: MIC PA
[11] = tested on: Aspergillus fumigatus 231; experiment: Antifungal microdilution broth, AF; assay type: cell-based; conditions: read-out: MIC AF
Trichosporon asahii 1188 = experiment: Antifungal microdilution broth, TA; assay type: cell-based; conditions: read-out: MIC TA
[12] = tested on: M. avium ssp. avium CNCTC My 80/72 (ATCC 15769); experiment: Antimycobacterial microdilution MABA, M. avium; assay type: cell-based, Mycobacterium avium; conditions: Mycobacterium avium, ATCC15769, pH 6.6, read-out: M. avium ATCC 15769 MIC
[13] = tested on: Enterococcus sp. J 14365/08; experiment: Antibacterial microdilution broth, EF; assay type: cell-based; conditions: Enterococcus, read-out: MIC EF
[14] = tested on: Escherichia coli CCM 4517; experiment: Antibacterial microdilution broth, EC; assay type: cell-based; conditions: Escherichia coli, read-out: MIC EC
[15] = tested on: Staphylococcus aureus CCM 4516/08; experiment: Antibacterial microdilution broth, SA; assay type: cell-based; conditions: Staphylococcus aureus
[16] = Confirmatory prolonged HepG2 cytotoxicity, CellTox Green Cytotoxicity Assay; conditions: human, HepG2 cells
[17] = tested on: Staphylococcus aureus H 5996/08 methicillin resistant; experiment: microbe, parasite or virus in culture; assay type: cell-based; conditions: for MIC: Staphylococcus aureus, MRSA, read-out: MIC MRSA

O=C(Nc1ccccc1O)c1cnc(Cl)cn1 [Amide R1=5-Cl R2=2-OH]
Amides MIC [1]: 3.13 µg/mL | Amides MIC (value in parentheses) [1]: 0.78 µg/mL | IC50 (HepG2 cells): 30 µM

CCc1ccc(NC(=O)c2cnc(Cl)cn2)cc1 [Amide R1=5-Cl R2=4-Et]
Amides MIC [1]: 1.56 µg/mL | Amides MIC (value in parentheses) [1]: 0.78 µg/mL | IC50 (HepG2 cells): 7.2 µM

O=C(Nc1cnc(Cl)cn1)c1ccccc1O [Compound 2b]
melting point: 197.7 to 198.2 °C | MIC ([2]; Lichtheimia corymbifera, 272, 24 h): 62.5 µM (≈ 15.6 µg/mL) | MIC ([2]; Lichtheimia corymbifera, 272, 48 h): 125 µM (≈ 31.2 µg/mL) | MIC (Candida tropicalis 156; Candida tropicalis, 156, 24 h): 125 µM (≈ 31.2 µg/mL) | MIC (Candida tropicalis 156; Candida tropicalis, 156, 48 h): 125 µM (≈ 31.2 µg/mL) | MIC ([3]; read-out: Mtb H37Rv ATCC 27294 MIC, Middlebrook 7H9 with OADC growth supplement, pH = 6.6, MABA): 12.5 µg/mL | MIC ([3]; read-out: Mtb MIC, molar concentration): 50.1 µM | MIC [4]: 50 µg/mL (≈ 200 µM) | MIC ([5]; ATCC44859, 24 h): 62.5 µM (≈ 15.6 µg/mL) | MIC ([5]; ATCC44859, 48 h): 62.5 µM (≈ 15.6 µg/mL) | MIC [6]: 15.6 µg/mL (≈ 62.6 µM) | MIC (Candida krusei E28; E28, 24 h): 125 µM (≈ 31.2 µg/mL) | MIC (Candida krusei E28; E28, 48 h): 125 µM (≈ 31.2 µg/mL) | MIC ([7]; 24 h): 62.50 µM (≈ 15.6 µg/mL) | MIC ([7]; 48 h): 62.50 µM (≈ 15.6 µg/mL) | MIC ([7]; Staphylococcus epidermidis, H6966/08, 24 h): 62.5 µM (≈ 15.6 µg/mL) | MIC ([7]; Staphylococcus epidermidis, H6966/08, 48 h): 62.5 µM (≈ 15.6 µg/mL) | IC50 at 24 h [8]: 155 µM | MIC ([9]; Trichophyton interdigitale, 445, 72 h): 125 µM (≈ 31.2 µg/mL) | MIC ([9]; Trichophyton interdigitale, 445, 120 h): 125 µM (≈ 31.2 µg/mL) | MIC (Candida glabrata 20/I; 24 h): 125 µM (≈ 31.2 µg/mL) | MIC (Candida glabrata 20/I; 48 h): 125 µM (≈ 31.2 µg/mL) | MIC ([10]; CCM1961, 72 h): > 500 µM | MIC ([10]; CCM1961, 120 h): > 500 µM | MIC ([11]; Aspergillus fumigatus, 231, 24 h): 125 µM (≈ 31.2 µg/mL) | MIC ([11]; Aspergillus fumigatus, 231, 48 h): 125 µM (≈ 31.2 µg/mL) | MIC (Trichosporon asahii 1188; Trichosporon asahii, 1188, 24 h): 62.5 µM (≈ 15.6 µg/mL) | MIC (Trichosporon asahii 1188; Trichosporon asahii, 1188, 48 h): 125 µM (≈ 31.2 µg/mL) | MIC [12]: 50 µg/mL (≈ 200 µM) | MIC ([13]; SP.J14365/08, 24 h): > 500 µM | MIC ([13]; SP.J14365/08, 48 h): > 500 µM | MIC ([14]; CCM4517, 24 h): > 500 µM | MIC ([14]; CCM4517, 48 h): > 500 µM | MIC ([15]; CCM4516, 24 h, read-out: MIC SA, 24 h): 15.6 µM (≈ 3.9 µg/mL) | MIC ([15]; CCM4516, 48 h, read-out: MIC SA, 48 h): 15.6 µM (≈ 3.9 µg/mL) | IC50 at 24 h [16]: 545 µM | IC50 at 48 h [16]: 188 µM | MIC MRSA ([17]; 24 h): 62.50 µM (≈ 15.6 µg/mL) | MIC MRSA ([17]; 48 h): 62.50 µM (≈ 15.6 µg/mL) | MIC ([17]; 24 h): 62.5 µM (≈ 15.6 µg/mL) | MIC ([17]; 48 h): 62.5 µM (≈ 15.6 µg/mL)
